This is an account of results in the supplement of paper PMC11997997.

In experiment [1] the test system is Mycobacterium tuberculosis CDC1551 (intracellular, in murine BMDM). Kind of experiment: area under intracellular growth-inhibition dose-response curve (AUC (% inhibition x dose, relative)); higher = more potent. The conditions noted are these: duration: 6 days; dose range: 0.13-80 uM, 8 points. The procedure, abridged: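 Luciferase-expressing M. tuberculosis CDC1551 was used at multiplicity of infection 1 for 1 h to infect primary murine bone marrow-derived macrophages in 384-well opaque plates, 24 h after seeding. Treatment followed for 6 days with an 8-dose, 2.5-fold series at final concentrations of 80–0.13 μM. GraphPad Prism was used to calculate the area under the growth-inhibition dose–response curve from Bright-Glo luciferin readings normalised to a reference drug control and the lowest-concentration wells.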

In experiment [2] the test system is murine bone marrow-derived macrophages. Put plainly: area under cytotoxicity dose-response curve (AUC (% cytotoxicity x dose, relative)); higher = more cytotoxic. As to conditions: duration: 6 days; dose range: 0.13-80 uM, 8 points. In a few lines:
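Cytotoxicity is given as the area under the dose–response curve, computed in GraphPad Prism version 10. Primary murine bone marrow-derived macrophages in opaque 384-well plates received an 8-point, 2.5-fold dilution series (final 80–0.13 μM) for 6 days at 37 °C in 5% CO2. Viability was measured by Promega's CellTiter-Glo luminescence assay, with percent cytotoxicity normalised to vehicle and positive control wells.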

On to `Cc1ccc(CNC(=O)c2ccc(Br)o2)cc1`, for which the “area under intracellular growth-inhibition dose-response curve” value in experiment [1] came to 267. In experiment [2], the “area under cytotoxicity dose-response curve” value is under 0.
Turning to `CCC(=O)NC(=S)Nc1ccc(NC(=S)NC(=O)c2ccc(C)cc2)cc1`, in experiment [1], the “area under intracellular growth-inhibition dose-response curve” value was 265. For the same compound, in experiment [2], the “area under cytotoxicity dose-response curve” value came out at 11.9.
As to `CCN1CCN(c2cc3c(cc2F)c(=O)c(C(=O)O)cn3C2CC2)CC1`, the “area under intracellular growth-inhibition dose-response curve” value in experiment [1] turned out to be 258. Also, in experiment [2], the “area under cytotoxicity dose-response curve” value worked out at 7.13.
Regarding `C[n+]1c2ccccc2nc2ccc(NCCO)cc21.[O-][Cl+3]([O-])([O-])[O-]`, in experiment [1], the “area under intracellular growth-inhibition dose-response curve” value was 107. In addition, the “area under cytotoxicity dose-response curve” value in experiment [2] is under 0.
As to `COc1cc(CNC23CC4CC(CC(C4)C2)C3)ccc1OCc1ccccc1.Cl`, the “area under intracellular growth-inhibition dose-response curve” value in experiment [1] worked out at 143. The “area under cytotoxicity dose-response curve” value in experiment [2] is 89.1.
Regarding `O=[N+]([O-])c1ccc(CN2CCN(c3ccc(F)cc3)CC2)o1`, the “area under intracellular growth-inhibition dose-response curve” value in experiment [1] was 245. For the same compound, the “area under cytotoxicity dose-response curve” value in experiment [2] is under 0.
The matching figures for `COc1ccc(Cn2c(SCc3ccccc3C)nc3cc(OC)c(OC)cc3c2=N)cc1`: 172 and 2.96.
The matching figures for `O=C1NC(=S)S/C1=C\C=C\c1ccc([N+](=O)[O-])o1`: 2.55 and 71.5.
Consider `CC(C)(C)C1C/C(=C/c2ccccn2)C(=O)/C(=C/c2ccccn2)C1` (centres undefined), for which, in experiment [1], the “area under intracellular growth-inhibition dose-response curve” value is 65.4. The “area under cytotoxicity dose-response curve” value in experiment [2] amounted to 155.
On to `CN(C)C1C(=O)C(C(N)=O)=C(O)C2(O)C(O)=C3C(=O)c4c(O)cccc4C(C)(O)C3C(O)C12` (centres undefined), for which the “area under intracellular growth-inhibition dose-response curve” value in experiment [1] was 166. In addition, in experiment [2], the “area under cytotoxicity dose-response curve” value came out at 22.3.
For the compound `S=C(NCc1ccc(Cl)cc1)NC12CC3CC(CC(C3)C1)C2`, the “area under intracellular growth-inhibition dose-response curve” value in experiment [1] stood at 157. Further, the “area under cytotoxicity dose-response curve” value in experiment [2] is under 0.
As to `COc1ccc(CCNC(=S)Nc2ccccc2)cc1`, the “area under intracellular growth-inhibition dose-response curve” value in experiment [1] worked out at 134. For the same compound, the “area under cytotoxicity dose-response curve” value in experiment [2] was 78.8.
Consider `CCC(=O)NC(=S)Nc1ccc(NC(=O)c2ccc(OC)cc2)cc1`, for which the “area under intracellular growth-inhibition dose-response curve” value in experiment [1] was 266. Besides, in experiment [2], the “area under cytotoxicity dose-response curve” value was under 0.
As for `CC1CCC(C(C)C)C(OC(=O)C[n+]2c(-c3ccc(Br)cc3)n(C)c3ccccc32)C1.[Cl-]` (centres undefined), the “area under intracellular growth-inhibition dose-response curve” value in experiment [1] came to 192. The “area under cytotoxicity dose-response curve” value in experiment [2] came out at 82.2.
Turning to `O=C(N/N=C/c1ccc(O)c([N+](=O)[O-])c1)c1ccncc1`, the “area under intracellular growth-inhibition dose-response curve” value in experiment [1] was 256. Further, the “area under cytotoxicity dose-response curve” value in experiment [2] was under 0.
Turning to `COc1cc(-c2cc(C(=O)Nc3ccncc3)c3ccccc3n2)cc(OC)c1OC`, in experiment [1], the “area under intracellular growth-inhibition dose-response curve” value came out at 32.8. Moreover, the “area under cytotoxicity dose-response curve” value in experiment [2] turned out to be 0.318.
Regarding `O=C(NC1CCCC1)c1ccc(Br)s1`, the “area under intracellular growth-inhibition dose-response curve” value in experiment [1] is 220. Further, in experiment [2], the “area under cytotoxicity dose-response curve” value came to 54.8.
For the compound `C=C[C@]1(C)C[C@@H](OC(=O)CSCCN(CC)CC)[C@]2(C)C(C)CC[C@]3(CCC(=O)[C@H]32)[C@@H](C)[C@@H]1O.O=C(O)/C=C/C(=O)O` (some centres undefined), the “area under intracellular growth-inhibition dose-response curve” value in experiment [1] was 199. Moreover, the “area under cytotoxicity dose-response curve” value in experiment [2] was determined as 89.1.
`Cc1ccc(OCCCC(=O)NNC(=O)c2ccncc2)cc1`: the “area under intracellular growth-inhibition dose-response curve” value in experiment [1] was 268. Moreover, in experiment [2], the “area under cytotoxicity dose-response curve” value was 10.4.
For `O=C(NCC1CCCO1)c1csc2c1CCCCC2` (centres undefined), in experiment [1], the “area under intracellular growth-inhibition dose-response curve” value worked out at 143. Also, the “area under cytotoxicity dose-response curve” value in experiment [2] worked out at 19.4.
The matching figures for `CCNC(=S)Nc1ccc(OCc2nc3ccccc3s2)cc1`: 273 and 35.3.
`Cc1nn(C(C)C(=O)NC2C(=O)N3C(C(=O)O)=C(CSc4nnnn4C)CSC23)cc1Cl` (centres undefined): the “area under intracellular growth-inhibition dose-response curve” value in experiment [1] was 194. In experiment [2], the “area under cytotoxicity dose-response curve” value was found to be 9.03.
As to `Cc1cccc(NC(=O)NC2CCCCCCC2)c1`, the “area under intracellular growth-inhibition dose-response curve” value in experiment [1] amounted to 123. Moreover, in experiment [2], the “area under cytotoxicity dose-response curve” value was found to be 95.3.
As to `O=C(CCC1CCCC1)NCc1ccccn1`, in experiment [1], the “area under intracellular growth-inhibition dose-response curve” value is 240. For the same compound, the “area under cytotoxicity dose-response curve” value in experiment [2] was under 0.
Take `Cc1cccc(N2CCN(Cc3ccc([N+](=O)[O-])o3)CC2)c1C`: in experiment [1], the “area under intracellular growth-inhibition dose-response curve” value came to 221. The “area under cytotoxicity dose-response curve” value in experiment [2] was found to be 38.8.
On to `CCc1ccc(C(=O)/C=C/c2ccc([N+](=O)[O-])o2)cc1`, for which, in experiment [1], the “area under intracellular growth-inhibition dose-response curve” value was 142. Moreover, the “area under cytotoxicity dose-response curve” value in experiment [2] was 5.66.
`Cc1[nH]c2ccccc2c1C(=O)C(C)OC(=O)c1ccc([N+](=O)[O-])o1` (centres undefined): the “area under intracellular growth-inhibition dose-response curve” value in experiment [1] amounted to 3.96. The “area under cytotoxicity dose-response curve” value in experiment [2] is under 0.
Regarding `Cc1cc(NC(=O)c2ccc([N+](=O)[O-])o2)ccc1NC(=O)c1ccco1`, the “area under intracellular growth-inhibition dose-response curve” value in experiment [1] worked out at 63.8. Moreover, the “area under cytotoxicity dose-response curve” value in experiment [2] stood at 88.8.
Regarding `CCCC12CN3CCN(CC(C3)/C1=N\NC(=O)c1ccncc1)C2`, in experiment [1], the “area under intracellular growth-inhibition dose-response curve” value turned out to be 233. Besides, the “area under cytotoxicity dose-response curve” value in experiment [2] came to 28.1.
Turning to `Cc1c(Cl)cnn1CC(=O)NC1C(=O)N2C(C(=O)O)=C(CSc3nnnn3C)CSC12` (centres undefined), in experiment [1], the “area under intracellular growth-inhibition dose-response curve” value came to 168. For the same compound, the “area under cytotoxicity dose-response curve” value in experiment [2] is 18.6.
Turning to `CC(=O)Nc1ccc(-c2c(C)cc3oc(=O)cc(-c4ccccc4)c3c2C)cc1`, the “area under intracellular growth-inhibition dose-response curve” value in experiment [1] is 221. For the same compound, the “area under cytotoxicity dose-response curve” value in experiment [2] worked out at 113.
Consider `COc1ccc(N2C(C)=CC(=Cc3sc4ccccc4[n+]3C)C=C2C)cc1.[I-]`, for which the “area under intracellular growth-inhibition dose-response curve” value in experiment [1] was under 0. In addition, the “area under cytotoxicity dose-response curve” value in experiment [2] was found to be 87.2.
Consider `CCc1ccc(NC(=S)Nc2ccc3c[nH]nc3c2)cc1`, for which the “area under intracellular growth-inhibition dose-response curve” value in experiment [1] came out at 237. Besides, the “area under cytotoxicity dose-response curve” value in experiment [2] was 33.8.
As to `Cc1ccccc1-n1c(C)cc(/C=N/NC(=O)c2ccncc2)c1C`, the “area under intracellular growth-inhibition dose-response curve” value in experiment [1] worked out at 214. Besides, the “area under cytotoxicity dose-response curve” value in experiment [2] is under 0.
Take `O=c1cc(-c2c(F)c(F)c(F)c(F)c2F)oc2ccccc12`: in experiment [1], the “area under intracellular growth-inhibition dose-response curve” value was determined as 122. Also, the “area under cytotoxicity dose-response curve” value in experiment [2] turned out to be 11.4.
`CC1CCN(C(=O)C2CCN(c3nnc(-n4cccc4)s3)CC2)CC1`: the “area under intracellular growth-inhibition dose-response curve” value in experiment [1] was 234. Further, the “area under cytotoxicity dose-response curve” value in experiment [2] is under 0.
`Cn1nnnc1SCC1=C(C(=O)O)N2C(=O)C(NC(=O)Cn3nc(C(F)F)cc3C3CC3)C2SC1` (centres undefined): in experiment [1], the “area under intracellular growth-inhibition dose-response curve” value turned out to be 177. Moreover, the “area under cytotoxicity dose-response curve” value in experiment [2] came to 38.2.
For `C/C(=N\NC(N)=S)c1ccncc1`, the “area under intracellular growth-inhibition dose-response curve” value in experiment [1] turned out to be 138. Also, in experiment [2], the “area under cytotoxicity dose-response curve” value worked out at 113.
In the case of `O=C(N/N=C/c1c(F)c(F)c(F)c(F)c1F)c1ccc(Cn2cc(Br)cn2)o1`, the “area under intracellular growth-inhibition dose-response curve” value in experiment [1] stood at 154. In experiment [2], the “area under cytotoxicity dose-response curve” value was under 0.
Regarding `O=C(COc1ccccc1)N/N=C/c1ccc([N+](=O)[O-])o1`, in experiment [1], the “area under intracellular growth-inhibition dose-response curve” value is 209. Moreover, the “area under cytotoxicity dose-response curve” value in experiment [2] was 14.3.
As to `Cc1ccc(C(=O)N2CCC(C)CC2)cc1C`, the “area under intracellular growth-inhibition dose-response curve” value in experiment [1] worked out at 113. The “area under cytotoxicity dose-response curve” value in experiment [2] came to 24.4.
The matching figures for `CC[C@@H](C)[C@@H]1CN([C@@H](C)CN2CCC[C@H]2CN2C(N)=NC[C@@H]2Cc2ccccc2)C(=N)N1CCc1ccc(Cl)c(Cl)c1`: 167 and under 0.
For the compound `Cc1ccc2nc(C)cc(S)c2c1`, the “area under intracellular growth-inhibition dose-response curve” value in experiment [1] is 108. For the same compound, the “area under cytotoxicity dose-response curve” value in experiment [2] is under 0.
With `CCSc1nnc(NC(=O)[C@H](C)N2C(=O)C3CC=CCC3C2=O)s1` (some centres undefined), the “area under intracellular growth-inhibition dose-response curve” value in experiment [1] turned out to be 129. In experiment [2], the “area under cytotoxicity dose-response curve” value is under 0.
As for `Cc1ccccc1C(=O)N1CCN(c2ccc(NC(=S)NC(=O)c3ccco3)cc2)CC1`, the “area under intracellular growth-inhibition dose-response curve” value in experiment [1] is 185. Besides, the “area under cytotoxicity dose-response curve” value in experiment [2] came to 63.6.
`O=C(Cc1ccc(Br)cc1)N1CCCC1`: the “area under intracellular growth-inhibition dose-response curve” value in experiment [1] was 208. In experiment [2], the “area under cytotoxicity dose-response curve” value is under 0.
Consider `COc1ccc(CNc2nc3nc4c(c(O)n3n2)CCC4)cc1`, for which the “area under intracellular growth-inhibition dose-response curve” value in experiment [1] came to 140. Moreover, the “area under cytotoxicity dose-response curve” value in experiment [2] came to 15.2.
Taken in the same sequence, the figures for `CCCCN(C(=O)c1ccco1)c1c(N)n(CCC)c(=O)[nH]c1=O` were under 0 and 53.6.
Taken in the same sequence, the figures for `CC(=O)Nc1ccc(S(=O)(=O)Nc2ccc(N3CCCCC3)cc2)cc1` were 27.8 and 16.6.
`CCOc1ccc(NC(=S)Nc2ccc(OC)cc2)cc1`: in experiment [1], the “area under intracellular growth-inhibition dose-response curve” value was found to be 233. Moreover, the “area under cytotoxicity dose-response curve” value in experiment [2] was determined as 13.
Take `Cc1c([N+](=O)[O-])cc(C(=O)NCc2ccc(F)cc2)cc1[N+](=O)[O-]`: the “area under intracellular growth-inhibition dose-response curve” value in experiment [1] was 252. For the same compound, the “area under cytotoxicity dose-response curve” value in experiment [2] is under 0.
The matching figures for `CN(C)c1ccc(O)c2c1CC1CC3[C@@H](N(C)C)C(=O)C(C(N)=O)=C(O)[C@]3(O)C(=O)C1=C2O.Cl` (some centres undefined): 246 and 112.
